Measurements reported in patent US20060135551A1, “Novel heterocyclic compounds and their pharmaceutical compositions” (priority 2004, published 2006).

Target: T1, Recombinant CETP enzyme (Homo sapiens, UniProt P11597)
T1 construct: purchased Cardiovascular Targets
T1 sequence (P11597 18-493): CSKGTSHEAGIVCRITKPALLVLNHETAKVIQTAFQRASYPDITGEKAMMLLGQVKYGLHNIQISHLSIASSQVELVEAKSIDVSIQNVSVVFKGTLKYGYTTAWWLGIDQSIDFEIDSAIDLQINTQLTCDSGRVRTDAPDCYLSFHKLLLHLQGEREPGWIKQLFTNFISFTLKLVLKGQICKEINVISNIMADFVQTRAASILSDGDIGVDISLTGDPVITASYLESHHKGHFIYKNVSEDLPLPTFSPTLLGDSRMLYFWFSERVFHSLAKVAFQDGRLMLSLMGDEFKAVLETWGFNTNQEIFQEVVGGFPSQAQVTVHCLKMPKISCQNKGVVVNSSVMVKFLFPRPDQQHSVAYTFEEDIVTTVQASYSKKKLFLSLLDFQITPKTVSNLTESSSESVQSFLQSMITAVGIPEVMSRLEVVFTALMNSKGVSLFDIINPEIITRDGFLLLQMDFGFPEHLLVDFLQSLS
Assay: In vitro fluorescence-based CETP inhibition assay (BODIPY-CE transfer from donor to acceptor microemulsions)
Assay type: biochemical
Conditions: recombinant CETP 0.14 ng/μl; transfer of fluorescent cholesteryl ester monitored over 2 hours; compared to DMSO controls
Procedure: An in vitro fluorescence-based assay to identify CETP inhibitors was developed from modifications of the protocols outlined in Bisgaier et al., J Lipid Res., 34(9): 1625-34 (1993) and Epps et al., Chem Phys Lipids., 77(1): 51-63 (1995). Acceptor and donor lipid microemulsions were prepared according to Bisgaier et al., 1993, except that the buffer was prepared with 0.67 ug/ml human HDL (Calbiochem). Donor microemulsions contained the fluorescent cholesteryl ester analog BODIPY-CE (Molecular Probes), characterized by excitation and emission maxima at 503 nm and 518 nm, respectively. The CETP-mediated transfer of fluorescent cholesteryl ester to acceptor particles was monitored over a 2-hour time period using the FAM filter set (excitation 492 nm, emission 516 nm) in an MX3000P fluorescent plate reader (Stratagene). Recombinant CETP enzyme (Cardiovascular Targets) was used at 0.14 ng/μl, final concentration, to achieve lipid transfer. CETP inhibition by compounds was compared to DMSO controls and graphed as a percentage of the control CETP activity over 2 hours. The IC50 curves for CETP inhibition were generated from the activity profiles. Active compounds were also tested for CETP inhibition as above, but in the presence of 3% human serum albumin, fraction V (Calbiochem).
Using this protocol, IC50 data for CETP inhibition were obtained.

CCOC(=O)N1c2c(c(C)nn2C)C(N(Cc2cc(C(F)(F)F)cc(C(F)(F)F)c2)C(=O)OC)CC1CC (stereo not shown) [Example E1, 4-[(3,5-Bis-trifluoromethyl-benzyl)-methoxycarbonyl-amino]-6-ethyl-1,3-dimethyl-1,4,5,6-tetrahydro-pyrazolo[3,4-b]pyridine-7-carboxylic acid ethyl ester]
IC50: 4.6 µM
